Laboratory results: article PMC5028030, “Costimulatory Effects of an Immunodominant Parasite Antigen Paradoxically Prevent Induction of Optimal CD8 T Cell Protective Immunity” (PLoS Pathogens, 2016)
“Also recorded” adds a separate entry of the source. Peptide text beside a SMILES is read from it.

How the values were obtained:
[1] = tested on: CD4^+ T cells; parameters: method as in manuscript in preparation; details: after TS vaccination; I-A^d-restricted; ref manuscript in preparation; cited from earlier work
[2] = tested on: naïve CD8^+ T cells; experiment: CD8^+ T cell costimulation assay; format: cell-based, BALB/c mouse; details: inhibitor added to TS/PMA activated CD8^+ T cell cultures
Description: (§1) Fig 6 TS enzymatic activity is associated with costimulatory effects. In panel A, enzymatic activities of WT and TSKd1 mutant proteins were determined in lysates and supernatants of 293T cells transfected with WT TS and TSKd1 null DNA using fluorometric TS enzymatic activity assays. […] CD8^+ T cells from naïve 4–5 week old BALB/c mice were purified by positive magnetic bead selection and incubated with suboptimal doses of PMA (12.5ng/ml) ± WT or TSKd1 null rTS. After 3 days, proliferation was measured by ^3H-Thymidine incorporation. Shown are incorporated ^3H-Thymidine counts per minute (CPM) above suboptimal PMA treatment alone. Similar TS costimulation assays using naïve CD8^+ T cells were conducted with CD45 inhibitor PTP or Src-family kinase inhibitor PP2 added (C). In panel D, increasing concentrations of TSKd1 peptide were added to constant amounts of WT TS in TS enzyme assays. […]
CD8^+ T cells purified by positive Miltenyi magnetic bead selection from naïve 4–5 week old BALB/c mice were added to 96-well flat bottom plates (2x10^5 cells/well) and stimulated with suboptimal doses of PMA (12.5 ng/ml) with or without recombinant WT vs TSKd1 null TS protein (25–100 μg/ml) similar to TS costimulatory assays conducted previously. […] Ultima Gold F scintillation fluid was added and filtermats counted using a Perkin Elmer TriLux MicroBeta 1450 instrument. […]

[3] = biological target: WT TS (Trypanosoma cruzi, UniProt P23253); experiment: Inhibition of TS enzymatic activity (MuNANA hydrolysis); format: biochemical
Description: as §1, with “alone.” for “alone. Similar TS costimulation assays using naïve CD8^+ T cells were conducted with CD45 inhibitor PTP or Src-family kinase inhibitor PP2 added (C). In panel D, increasing concentrations of TSKd1 peptide were added to constant amounts of WT TS in TS enzyme assays.”
Trans-sialidase enzymatic activity was assayed as described previously. […] The acid elutions were incubated at 95°C for 45 minutes, the reactions neutralized with glycine/NaOH (pH 10) and released 4-MU measured by fluorescence emission at 450nm and compared to a standard curve. […] The reaction was continuously monitored in a SpectraMax i3 Multi-Mode Detection Platform (Molecular Devices) after pre-incubation of the enzyme with the peptide for 10 min at room temperature. The residual activity at each concentration of TSKd1 was obtained by dividing the slope calculated at each concentration of TSKd1 (Vi) by the initial velocity determined in the absence of peptide (V0). […]

WT TS, sequence (P23253 whole entry): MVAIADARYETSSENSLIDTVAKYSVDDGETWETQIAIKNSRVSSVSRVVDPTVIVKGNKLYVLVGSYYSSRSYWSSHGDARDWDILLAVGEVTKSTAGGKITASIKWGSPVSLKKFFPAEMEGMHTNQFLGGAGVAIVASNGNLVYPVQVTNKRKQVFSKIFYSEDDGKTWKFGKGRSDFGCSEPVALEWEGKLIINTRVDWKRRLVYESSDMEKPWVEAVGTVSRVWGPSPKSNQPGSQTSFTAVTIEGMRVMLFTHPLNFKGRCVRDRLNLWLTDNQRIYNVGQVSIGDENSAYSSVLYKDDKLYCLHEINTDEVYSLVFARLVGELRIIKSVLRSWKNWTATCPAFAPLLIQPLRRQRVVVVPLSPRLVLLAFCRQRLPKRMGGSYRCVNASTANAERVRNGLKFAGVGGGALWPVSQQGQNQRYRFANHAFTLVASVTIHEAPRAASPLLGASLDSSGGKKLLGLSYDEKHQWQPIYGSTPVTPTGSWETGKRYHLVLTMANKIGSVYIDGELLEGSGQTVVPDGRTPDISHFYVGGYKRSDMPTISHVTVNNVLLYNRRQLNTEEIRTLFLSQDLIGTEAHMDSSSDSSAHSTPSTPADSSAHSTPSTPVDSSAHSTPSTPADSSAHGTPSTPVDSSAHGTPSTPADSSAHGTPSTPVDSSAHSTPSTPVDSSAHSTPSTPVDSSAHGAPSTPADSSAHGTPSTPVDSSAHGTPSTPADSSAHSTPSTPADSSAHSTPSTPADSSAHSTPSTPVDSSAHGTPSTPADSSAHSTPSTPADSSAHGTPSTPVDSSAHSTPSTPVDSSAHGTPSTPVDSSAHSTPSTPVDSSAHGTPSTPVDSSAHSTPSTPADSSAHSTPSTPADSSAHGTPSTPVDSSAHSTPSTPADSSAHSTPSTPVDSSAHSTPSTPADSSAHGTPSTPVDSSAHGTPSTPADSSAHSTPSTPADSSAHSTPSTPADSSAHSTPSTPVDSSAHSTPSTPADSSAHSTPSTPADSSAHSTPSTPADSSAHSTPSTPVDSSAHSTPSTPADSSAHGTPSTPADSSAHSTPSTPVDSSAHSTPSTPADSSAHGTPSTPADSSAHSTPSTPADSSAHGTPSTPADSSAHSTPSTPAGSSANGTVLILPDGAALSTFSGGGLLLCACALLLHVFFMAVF

Compound: KVTERVVHSFRLPALVNV [p7]
- CD4^+ T cell response to peptide [1]: most potent CD4^+ T cell responses of any peptide tested

Compound: CC(C)(C)C(=O)Nc1ccc2c(c1)C(=O)C(=O)c1ccccc1-2 [PTP, N-[(9-10-dioxo-9,10-dihydro-phenanthren-2-yl)-2,2-dimethyl-propionamide]]
- inhibition of TS costimulatory activity [2]: blocked; also recorded: prevent co-stimulation of naïve CD8^+ T cells

Compound: CC[C@H](C)[C@H](N)C(=O)N[C@@H](Cc1ccc(O)cc1)C(=O)N[C@@H](CC(N)=O)C(=O)N[C@H](C(=O)NCC(=O)N[C@@H](CCC(N)=O)C(=O)N[C@H](C(=O)N[C@@H](CO)C(=O)N[C@H](C(=O)O)[C@@H](C)CC)C(C)C)C(C)C [TSKd1, IYNVGQVSI] (H-IYNVGQVSI-OH)
- IC50 [3]: 20 ± 3 µM
